ChEMBL document CHEMBL3352346, “Optimization of sphingosine-1-phosphate-1 receptor agonists: effects of acidic, basic, and zwitterionic chemotypes on pharmacokinetic and pharmacodynamic profiles” (J Med Chem, 2014)

Tests used:
[1] = Oral bioavailability in CD rat at 3 mg/kg using Methylcellulose(aq), 1% (w/v) suspension; assay type: ADME, organism-based; settings: CD, in vivo
[2] = Chromatographic hydrophobicity index, log D of the compound at pH 10.5; assay type: physicochemical; settings: buffer
[3] = Volume of distribution at steady state in CD rat at 1 mg/kg, iv or 3 mg/kg, po using DMSO/10%(w/v) Kleptose, 0.9% saline(aq) (2%/98%); assay type: ADME, organism-based; settings: in vivo, read-out: Vdss
[4] = Chromatographic hydrophobicity index, log D of the compound at pH 2; assay type: physicochemical; settings: buffer
[5] = target: Sphingosine 1-phosphate receptor 3 (Homo sapiens, UniProt Q99500); test: Agonist activity at human S1P3R expressed in RBL membranes assessed as [35S]GTPgammaS binding after 30 mins; assay type: functional, cell membranes
[6] = target: Sphingosine 1-phosphate receptor 1 (Homo sapiens, UniProt P21453); test: Agonist activity at human S1P1R expressed in RH7777 membranes assessed as [35S]GTPgammaS binding after 30 mins; assay type: functional, cell membranes
[7] = Half life in CD rat at 1 mg/kg, iv or 3 mg/kg, po using DMSO/10%(w/v) Kleptose, 0.9% saline(aq) (2%/98%); assay type: ADME, organism-based; settings: in vivo
Rattus norvegicus [8] = test: Reduction of lymphocyte count in rat at 3 mg/kg, po measured at 12 hrs relative to control; assay type: functional
Rattus norvegicus [9] = test: Reduction of lymphocyte count in rat at 3 mg/kg, po measured at 8 hrs relative to control; assay type: functional
Rattus norvegicus [10] = test: Reduction of lymphocyte count in rat at 3 mg/kg, po measured at 24 hrs relative to control; assay type: functional
[11] = Clearance in CD rat at 1 mg/kg, iv or 3 mg/kg, po using DMSO/10%(w/v) Kleptose, 0.9% saline(aq) (2%/98%); assay type: ADME, organism-based; settings: in vivo
[12] = Chromatographic hydrophobicity index, log D of the compound at pH 7.4; assay type: physicochemical; settings: buffer
Rattus norvegicus [13] = test: Reduction of lymphocyte count in rat at 3 mg/kg, po measured at 4 hrs relative to control; assay type: functional
Albumin = Albumin (Homo sapiens, UniProt P02768); test: Fraction unbound as a percentage in human serum albumin; assay type: ADME
Chain of Albumin (P02768 whole entry): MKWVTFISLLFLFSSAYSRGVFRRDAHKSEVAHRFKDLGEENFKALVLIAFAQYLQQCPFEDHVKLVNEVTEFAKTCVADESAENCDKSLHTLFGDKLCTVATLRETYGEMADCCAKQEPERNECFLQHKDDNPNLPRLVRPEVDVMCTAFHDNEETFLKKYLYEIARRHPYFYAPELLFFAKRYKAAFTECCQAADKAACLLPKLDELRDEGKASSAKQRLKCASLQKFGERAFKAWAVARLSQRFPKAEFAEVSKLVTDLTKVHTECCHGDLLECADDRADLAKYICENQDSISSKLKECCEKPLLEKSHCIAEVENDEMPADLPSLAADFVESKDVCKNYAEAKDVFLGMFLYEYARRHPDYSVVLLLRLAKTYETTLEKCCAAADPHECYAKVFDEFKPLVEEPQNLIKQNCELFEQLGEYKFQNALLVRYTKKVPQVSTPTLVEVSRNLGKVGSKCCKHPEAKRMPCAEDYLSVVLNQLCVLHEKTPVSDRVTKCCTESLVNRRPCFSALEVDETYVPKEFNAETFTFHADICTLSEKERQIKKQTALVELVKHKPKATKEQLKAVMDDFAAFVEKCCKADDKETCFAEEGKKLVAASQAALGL

Chain of Sphingosine 1-phosphate receptor 1 (P21453 whole entry): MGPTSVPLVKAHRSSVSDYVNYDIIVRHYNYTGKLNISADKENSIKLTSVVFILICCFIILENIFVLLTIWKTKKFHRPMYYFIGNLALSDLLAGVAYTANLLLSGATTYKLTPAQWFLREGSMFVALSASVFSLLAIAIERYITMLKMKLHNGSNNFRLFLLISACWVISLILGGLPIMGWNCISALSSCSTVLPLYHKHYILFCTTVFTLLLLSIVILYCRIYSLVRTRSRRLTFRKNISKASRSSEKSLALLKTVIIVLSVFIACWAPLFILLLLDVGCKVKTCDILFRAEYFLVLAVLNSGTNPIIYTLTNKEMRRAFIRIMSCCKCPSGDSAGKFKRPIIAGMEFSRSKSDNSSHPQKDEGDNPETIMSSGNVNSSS
Chain of Sphingosine 1-phosphate receptor 3 (Q99500 whole entry): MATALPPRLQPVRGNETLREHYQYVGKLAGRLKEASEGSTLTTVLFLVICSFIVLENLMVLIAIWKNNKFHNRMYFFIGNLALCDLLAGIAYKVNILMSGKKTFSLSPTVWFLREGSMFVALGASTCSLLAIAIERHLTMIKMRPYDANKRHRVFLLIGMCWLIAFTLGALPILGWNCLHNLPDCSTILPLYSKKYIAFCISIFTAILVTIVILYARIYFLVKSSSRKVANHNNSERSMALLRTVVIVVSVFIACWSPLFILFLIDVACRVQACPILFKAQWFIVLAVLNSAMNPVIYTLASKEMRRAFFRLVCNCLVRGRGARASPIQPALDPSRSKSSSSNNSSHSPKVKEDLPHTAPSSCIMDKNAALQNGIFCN

For `CC(C)Oc1ccc(-c2nc(-c3cccc4c3CCNC4CC(=O)O)no2)cc1Cl` (stereo unspecified), the bioavailability [1] was 10%, the chromatographic logD [2] was 1.73 and the Vd [3] was 2.7 L/kg. For the same compound, the chromatographic logD [4] was 1.47, the EC50 [5] was 5010 nM and the EC50 [6] was 20 nM. It also gave a half-life [7] of 6.7 h, an Activity (Rattus norvegicus [8]) of 58 and an Activity (Rattus norvegicus [9]) of 12. The Activity (Rattus norvegicus [10]) was 99, the clearance [11] was 5 mL/min/kg and the chromatographic logD [12] was 2.02. For the same compound, the Activity (Rattus norvegicus [13]) was 24.

`CC(C)Oc1ccc(-c2nc(-c3ccc4c(c3)CNC(CCC(=O)O)CO4)no2)cc1Cl` (stereo unspecified) showed an EC50 [5] of 251 nM and an EC50 [6] of 2.51 nM.

In the case of `CC(C)Oc1ccc(-c2nc(-c3ccc4c(c3)CNCCO4)no2)cc1Cl`, the EC50 [5] is reported as 15800 nM and the EC50 [6] is reported as 126 nM.

Compound `CC(C)Oc1ccc(-c2nc(-c3cccc4c3CCNCC4)no2)cc1C#N` has an EC50 [5] of 7940 nM and an EC50 [6] of 2 nM.

For `CC(C)Oc1ccc(-c2nc(-c3cccc4c3CCNC4CC(=O)O)no2)cc1C#N` (stereo unspecified), the chromatographic logD [2] was 1.27, the chromatographic logD [4] was 1.17 and the EC50 [5] was 12600 nM. The EC50 [6] was 5.01 nM, the Activity (Rattus norvegicus [8]) was 108 and the Activity (Rattus norvegicus [9]) was 69. The Activity (Rattus norvegicus [10]) was 132, the chromatographic logD [12] was 1.58 and the Activity (Rattus norvegicus [13]) was 46.

With `CC(C)Oc1ccc(-c2nc(-c3cccc4c3CCN(CC(=O)O)CC4)no2)cc1Cl` the EC50 [5] was > 31600 nM and the EC50 [6] was 2510 nM.

With `CC(C)Oc1ccc(-c2nc(-c3ccc4c(c3)OCCNC4)no2)cc1Cl` the EC50 [5] was > 31600 nM and the EC50 [6] was 316 nM.

With `CC(C)Oc1ccc(-c2nc(-c3cccc4c3CCCNC4)no2)cc1Cl` the EC50 [5] was > 31600 nM and the EC50 [6] was 631 nM.

With `O=C(O)c1cnn(Cc2ccc(-c3noc(-c4cc(-c5ccccc5)c(C(F)(F)F)s4)n3)cc2)c1` the EC50 [5] was 1580 nM, the EC50 [6] was 251 nM and the fraction unbound (Albumin) was 0.01.

In the case of `CC(C)Oc1ccc(-c2nc(-c3cccc4c3CN(CCCC(=O)O)C4)no2)cc1Cl`, the EC50 [5] is reported as 2000 nM and the EC50 [6] is reported as 501 nM.

For `CC(C)Oc1ccc(-c2nc(-c3cccc4c3CCNCC4)no2)cc1Cl`, the EC50 [5] was > 31600 nM and the EC50 [6] was 15.8 nM.

In the case of `CC(C)Oc1ccc(-c2nc(-c3cccc4c3CNC4)no2)cc1Cl`, the EC50 [5] is reported as > 31600 nM and the EC50 [6] is reported as 7.94 nM.

In the case of `CC(C)Oc1ccc(-c2nc(-c3cccc4c3OCCNC4CCCC(=O)O)no2)cc1Cl` (stereo unspecified), the EC50 [5] is reported as 25100 nM and the EC50 [6] is reported as 10 nM.

For `CC(C)Oc1ccc(-c2nc(-c3ccc4c(c3)OCCNC4)no2)cc1C#N`, the EC50 [5] was > 31600 nM and the EC50 [6] was 79.4 nM.

`CC(C)Oc1ccc(-c2nc(-c3ccc4c(c3)CN(CCCC(=O)O)CCO4)no2)cc1C#N` gave an EC50 [5] of 25100 nM and an EC50 [6] of 63.1 nM.

For `CC(C)Oc1ccc(-c2nc(-c3cccc4c3CCN(CCC(=O)O)CC4)no2)cc1Cl`, the EC50 [5] was > 31600 nM and the EC50 [6] was 158 nM.

With `CC(C)Oc1ccc(-c2nc(-c3ccc4c(c3)CNC(C(=O)O)CO4)no2)cc1Cl` (stereo unspecified) the EC50 [5] was 794 nM and the EC50 [6] was 5.01 nM.

In the case of `CC(C)Oc1ccc(-c2nc(-c3ccc4c(c3)CN(CCC(=O)O)CCO4)no2)cc1C#N`, the EC50 [5] is reported as > 31600 nM and the EC50 [6] is reported as 50.1 nM.

With `CC(C)Oc1ccc(-c2nc(-c3ccc4c(c3)CCNC4)no2)cc1C#N` the EC50 [5] was 31600 nM and the EC50 [6] was 3.98 nM.

Compound `CC(C)Oc1ccc(-c2nc(-c3ccc4c(c3)CCN(CC(=O)O)CC4)no2)cc1C#N` has an EC50 [5] of 2000 nM and an EC50 [6] of 3.98 nM.

`CC(C)Oc1ccc(-c2nc(-c3ccc4c(c3)CNCCO4)no2)cc1C#N` showed an EC50 [5] of 6310 nM and an EC50 [6] of 25.1 nM.

For `CC(C)Oc1ccc(-c2nc(-c3ccc4c(cnn4CCC(=O)O)c3)no2)cc1Cl`, the EC50 [5] was > 31600 nM, the EC50 [6] was 31.6 nM and the fraction unbound (Albumin) was 0.013.

`CC(C)Oc1ccc(-c2nc(-c3ccc4c(c3)CCN(CCC(=O)O)CC4)no2)cc1Cl` showed an EC50 [5] of 10000 nM and an EC50 [6] of 7.94 nM.

In the case of `CC(C)Oc1ccc(-c2nc(-c3cccc4c3CCN(CC(=O)O)C4)no2)cc1C#N`, the EC50 [5] is reported as > 31600 nM and the EC50 [6] is reported as 7.94 nM.

For `CC(C)Oc1ccc(-c2nc(-c3cccc4c3CCNC4)no2)cc1Cl`, the EC50 [5] was 15800 nM and the EC50 [6] was 39.8 nM.

`CC(C)Oc1ccc(-c2nc(-c3cccc4c3CN(CCC(=O)O)C4)no2)cc1Cl` showed an EC50 [5] of 7940 nM and an EC50 [6] of 316 nM.

For `CC(C)Oc1ccc(-c2nc(-c3ccc4c(c3)CCCNC4)no2)cc1Cl`, the EC50 [5] was > 31600 nM and the EC50 [6] was 398 nM.

In the case of `CC(C)Oc1ccc(-c2nc(-c3ccc4c(c3)CCCNC4)no2)cc1C#N`, the EC50 [5] is reported as > 31600 nM and the EC50 [6] is reported as 126 nM.

In the case of `CC(C)Oc1ccc(-c2nc(-c3cccc4c3OCCNC4CCC(=O)O)no2)cc1Cl` (stereo unspecified), the EC50 [5] is reported as > 31600 nM and the EC50 [6] is reported as 5.01 nM.

In the case of `CC(C)Oc1ccc(-c2nc(-c3cccc4c3CN(CCCC(=O)O)C4)no2)cc1C#N`, the EC50 [5] is reported as > 31600 nM and the EC50 [6] is reported as 398 nM.

In the case of `CC(C)Oc1ccc(-c2nc(-c3ccc4c(c3)CCN(CCC(=O)O)C4)no2)cc1C#N`, the EC50 [5] is reported as 3980 nM and the EC50 [6] is reported as 6.31 nM.

For `CC(C)Oc1ccc(-c2nc(-c3cccc4c3OCCNC4)no2)cc1Cl`, the EC50 [5] was > 31600 nM and the EC50 [6] was 79.4 nM.

In the case of `CC(C)Oc1ccc(-c2nc(-c3ccc4c(c3)CN(CCC(=O)O)CCO4)no2)cc1Cl`, the EC50 [5] is reported as 2000 nM and the EC50 [6] is reported as 126 nM.
